Experimental data: US20240034737A1, “Heterocyclic Derivatives as P2X7 Receptor Antagonists” (BREYE THERAPEUTICS APS, priority 2020, published 2024)

Legend:
[1] = molecular target: mP2X7 (Mus musculus (Mouse), UniProt Q9Z1M0); test: mP2X7 channel calcium-influx assay (Fluo-8 NW, FLIPR TETRA, Bz-ATP stimulation); assay type: cell-based
Method: (§1) Extracellular binding of Bz-ATP to P2X7 receptor opens the channel and allows Ca^2+ influx into the cells. This Ca^2+ entry was measured in HEK-293 cells stably transfected with P2X7 receptor using Screen Quest™ Fluo-8 No Wash Calcium Assay Kit (AAt Bioquest®, cat. 36316). Once inside the cell, the lipophilic blocking groups of Fluo-8 are cleaved by non-specific cell esterases, resulting in a negatively-charged fluorescent dye that stays inside cells. Its fluorescence increases upon binding to calcium. When HEK-293/P2X7 cells are stimulated with Bz-ATP, Ca^2+ enters the cells and the fluorescence of Fluo-8 NW increases.
(§2) HEK-293 cells stably transfected with P2X7 receptor were seeded overnight in growth medium at 10,000 to 20,000 cells/well in 384-well plate. 24 hours later, the medium was removed, and the cells were pre-loaded at RT for 1 hour with 20 μL/w of Fluo-8 NW. Then 10 μL/w of test compounds and reference antagonist A438079 at 3X-concentration were injected with the […] and the kinetic response over a period of five minutes was monitored.

[2] = molecular target: P2X7 receptor (Homo sapiens (Human), UniProt Q99572); test: Human P2X7 channel calcium-influx assay (Fluo-8 NW, FLIPR TETRA, Bz-ATP stimulation); assay type: cell-based; conditions: HEK-293 cells stably transfected with P2X7 receptor, Low Divalent Cation Assay Buffer, read-out: hP2X7 IC50
Sequence of P2X7 receptor (Q99572 whole entry): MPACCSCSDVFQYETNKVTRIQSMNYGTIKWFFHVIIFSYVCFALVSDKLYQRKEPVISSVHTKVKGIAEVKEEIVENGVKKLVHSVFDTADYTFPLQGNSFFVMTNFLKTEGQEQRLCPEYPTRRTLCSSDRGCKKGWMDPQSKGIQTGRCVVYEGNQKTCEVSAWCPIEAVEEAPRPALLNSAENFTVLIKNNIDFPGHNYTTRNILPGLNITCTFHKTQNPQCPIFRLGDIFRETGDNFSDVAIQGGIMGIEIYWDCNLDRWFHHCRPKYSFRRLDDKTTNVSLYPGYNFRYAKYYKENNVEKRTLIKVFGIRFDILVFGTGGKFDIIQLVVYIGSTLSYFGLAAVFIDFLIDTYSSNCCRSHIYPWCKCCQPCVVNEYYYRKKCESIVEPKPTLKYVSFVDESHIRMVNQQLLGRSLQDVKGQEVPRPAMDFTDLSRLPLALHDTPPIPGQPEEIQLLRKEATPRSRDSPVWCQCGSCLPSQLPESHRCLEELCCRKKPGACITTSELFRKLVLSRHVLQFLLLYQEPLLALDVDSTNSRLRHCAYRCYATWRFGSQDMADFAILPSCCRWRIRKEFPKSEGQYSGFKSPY
Method: as §1, §2

Sequence of mP2X7 (Q9Z1M0 whole entry): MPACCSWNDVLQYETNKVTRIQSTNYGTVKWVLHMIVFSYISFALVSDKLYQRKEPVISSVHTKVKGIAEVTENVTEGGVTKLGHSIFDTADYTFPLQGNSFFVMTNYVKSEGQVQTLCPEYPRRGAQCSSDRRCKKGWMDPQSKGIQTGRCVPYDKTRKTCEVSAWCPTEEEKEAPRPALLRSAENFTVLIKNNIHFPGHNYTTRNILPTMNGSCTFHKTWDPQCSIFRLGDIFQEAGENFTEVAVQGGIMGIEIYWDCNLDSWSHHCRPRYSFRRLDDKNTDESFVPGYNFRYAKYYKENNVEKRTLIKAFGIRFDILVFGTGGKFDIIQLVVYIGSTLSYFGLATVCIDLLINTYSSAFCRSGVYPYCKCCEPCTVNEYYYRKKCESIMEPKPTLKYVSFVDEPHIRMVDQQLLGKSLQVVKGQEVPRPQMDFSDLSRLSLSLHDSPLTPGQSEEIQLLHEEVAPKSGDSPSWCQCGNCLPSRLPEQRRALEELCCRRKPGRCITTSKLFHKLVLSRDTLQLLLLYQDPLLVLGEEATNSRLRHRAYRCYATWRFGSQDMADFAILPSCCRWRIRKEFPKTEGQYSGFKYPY

| IC50 [1] [nM] | IC50 [2] [nM] | Compound |
| --- | --- | --- |
| 56.1 | 29.4 | O=C(NCC(c1scnc1C(F)F)N1CCC(Oc2ncccc2C(F)(F)F)CC1)c1c(F)cccc1Cl (stereo not shown) [Example 59, 2-Chloro-N-{2-[4-(difluoromethyl)-1,3-thiazol-5-yl]-2-(4-{[3-(trifluoromethyl)pyridin-2-yl]oxy}piperidin-1-yl)ethyl}-6-fluorobenzamide] |
| 49.3 | 41.2 | COc1nccc(OC2CCN(C(CNC(=O)c3c(F)cccc3Cl)c3scnc3C(F)F)CC2)n1 (stereo not shown) [Example 63, 2-Chloro-N-{2-[4-(difluoromethyl)-1,3-thiazol-5-yl]-2-{4-[(2-methoxypyrimidin-4-yl)oxy]piperidin-1-yl}ethyl}-6-fluorobenzamide] |
| 209 | 65.8 | COc1ccnc(OC2CCN(C(CNC(=O)c3c(F)cccc3Cl)c3scnc3C(F)F)CC2)n1 (stereo not shown) [Example 64, 2-Chloro-N-{2-[4-(difluoromethyl)-1,3-thiazol-5-yl]-2-{4-[(4-methoxypyrimidin-2-yl)oxy]piperidin-1-yl}ethyl}-6-fluorobenzamide] |
| 64.5 | 62.3 | Cc1nc(C)c(F)c(OC2CCN(C(CNC(=O)c3c(F)cccc3Cl)c3scnc3C(F)F)CC2)n1 (stereo not shown) [Example 67, 2-Chloro-N-{2-[4-(difluoromethyl)-1,3-thiazol-5-yl]-2-{4-[(5-fluoro-2,6-dimethylpyrimidin-4-yl)oxy]piperidin-1-yl}ethyl}-6-fluorobenzamide] |
| 101 | 50 | O=C(NCC(c1scnc1C(F)F)N1CCC(Oc2cnccn2)CC1)c1c(F)cccc1Cl (stereo not shown) [Example 70, 2-Chloro-N-{2-[4-(difluoromethyl)-1,3-thiazol-5-yl]-2-[4-(pyrazin-2-yloxy)piperidin-1-yl]ethyl}-6-fluorobenzamidev] |
| 222 | 58.9 | O=C(NCC(c1scnc1C(F)F)N1CCC(Oc2cccnn2)CC1)c1c(F)cccc1Cl (stereo not shown) [Example 71, 2-Chloro-N-{2-[4-(difluoromethyl)-1,3-thiazol-5-yl]-2-[4-(pyridazin-3-yloxy)piperidin-1-yl]ethyl}-6-fluorobenzamide] |
| 29.4 | 11.9 | O=C(NCC(c1scnc1C(F)F)N1CCC(Oc2cccc(F)n2)CC1)c1c(F)cccc1Cl (stereo not shown) [Example 72, 2-Chloro-N-{2-[4-(difluoromethyl)-1,3-thiazol-5-yl]-2-{4-[(6-fluoropyridin-2-yl)oxy]piperidin-1-yl}ethyl}-6-fluorobenzamide] |
| 41.4 | 30.1 | N#Cc1ccnc(OC2CCN(C(CNC(=O)c3c(F)cccc3Cl)c3scnc3C(F)F)CC2)c1 (stereo not shown) [Example 79, 2-Chloro-N-(2-{4-[(4-cyanopyridin-2-yl)oxy]piperidin-1-yl}-2-[4-(difluoromethyl)-1,3-thiazol-5-yl]ethyl)-6-fluorobenzamide] |
| 41.9 | 15.2 | O=C(NCC(c1scnc1C(F)F)N1CCC(COc2nccs2)CC1)c1c(F)cccc1Cl (stereo not shown) [Example 82, 2-chloro-N-{2-[4-(difluoromethyl)-1,3-thiazol-5-yl]-2-{4-[(1,3-thiazol-2-yloxy)methyl]piperidin-1-yl}ethyl}-6-fluorobenzamide] |
| 32.7 | 13 | O=C(NCC(c1scnc1C(F)F)N1CCC(COc2nc(Cl)cs2)CC1)c1c(F)cccc1Cl (stereo not shown) [Example 83, 2-Chloro-N-[2-(4-{[(4-chloro-1,3-thiazol-2-yl)oxy]methyl}piperidin-1-yl)-2-[4-(difluoromethyl)-1,3-thiazol-5-yl]ethyl]-6-fluorobenzamide] |
| 25.2 | 27.8 | Cc1cccc(OCC2CCN(C(CNC(=O)c3c(F)cccc3Cl)c3scnc3C(F)F)CC2)n1 (stereo not shown) [Example 88, 2-Chloro-N-{2-[4-(difluoromethyl)-1,3-thiazol-5-yl]-2-(4-{[(6-methylpyridin-2-yl)oxy]methyl}piperidin-1-yl)ethyl}-6-fluorobenzamide] |
| 24.1 | 29.2 | Cc1ccnc(OCC2CCN(C(CNC(=O)c3c(F)cccc3Cl)c3scnc3C(F)F)CC2)c1 (stereo not shown) [Example 89, 2-Chloro-N-{2-[4-(difluoromethyl)-1,3-thiazol-5-yl]-2-(4-{[(4-methylpyridin-2-yl)oxy]methyl}piperidin-1-yl)ethyl}-6-fluorobenzamide] |
| 25.7 | 20 | N#Cc1ncccc1OCC1CCN(C(CNC(=O)c2c(F)cccc2Cl)c2scnc2C(F)F)CC1 (stereo not shown) [Example 90, 2-Chloro-N-[2-(4-{[(2-cyanopyridin-3-yl)oxy]methyl}piperidin-1-yl)-2-[4-(difluoromethyl)-1,3-thiazol-5-yl]ethyl]-6-fluorobenzamide] |
| 33.5 | 22.5 | N#Cc1nccnc1OCC1CCN(C(CNC(=O)c2c(F)cccc2Cl)c2scnc2C(F)F)CC1 (stereo not shown) [Example 92, 2-Chloro-N-[2-(4-{[(3-cyanopyrazin-2-yl)oxy]methyl}piperidin-1-yl)-2-[4-(difluoromethyl)-1,3-thiazol-5-yl]ethyl]-6-fluorobenzamide] |
| 13.8 | 34 | O=C(NCC(c1scnc1C(F)F)N1CCC(COc2nnnn2-c2ccccc2)CC1)c1c(F)cccc1Cl (stereo not shown) [Example 97, 2-Chloro-N-{2-[4-(difluoromethyl)-1,3-thiazol-5-yl]-2-(4-{[(1-phenyl-1H-1,2,3,4-tetrazol-5-yl)oxy]methyl}piperidin-1-yl)ethyl}-6-fluorobenzamide] |
| 15.2 | 22.8 | Cc1cccnc1OCC1CCN(C(CNC(=O)c2c(F)cccc2Cl)c2scnc2C(F)F)CC1 (stereo not shown) [Example 99, 2-Chloro-N-{2-[4-(difluoromethyl)-1,3-thiazol-5-yl]-2-(4-{[(3-methylpyridin-2-yl)oxy]methyl}piperidin-1-yl)ethyl}-6-fluorobenzamide] |
| 66.7 | 37.8 | Cc1cnc(OCC2CCN(C(CNC(=O)c3c(F)cccc3Cl)c3scnc3C(F)F)CC2)nc1 (stereo not shown) [Example 100, 2-Chloro-N-{2-[4-(difluoromethyl)-1,3-thiazol-5-yl]-2-(4-{[(5-methylpyrimidin-2-yl)oxy]methyl}piperidin-1-yl)ethyl}-6-fluorobenzamide] |
| 33.8 | 32 | O=C(NCC(c1scnc1C(F)F)N1CCC(COc2ccc(F)cn2)CC1)c1c(F)cccc1Cl (stereo not shown) [Example 102, 2-Chloro-N-{2-[4-(difluoromethyl)-1,3-thiazol-5-yl]-2-(4-{[(5-fluoropyridin-2-yl)oxy]methyl}piperidin-1-yl)ethyl}-6-fluorobenzamide] |
| 30.4 | 48.4 | O=C(NCC(c1scnc1C(F)F)N1CCC(COc2cncc(F)n2)CC1)c1c(F)cccc1Cl (stereo not shown) [Example 105, 2-Chloro-N-{2-[4-(difluoromethyl)-1,3-thiazol-5-yl]-2-(4-{[(6-fluoropyrazin-2-yl)oxy]methyl}piperidin-1-yl)ethyl}-6-fluorobenzamide] |
| 24.2 | 55.2 | O=C(NCC(c1scnc1C(F)F)N1CCC(COc2ccnc(F)n2)CC1)c1c(F)cccc1Cl (stereo not shown) [Example 107, 2-Chloro-N-{2-[4-(difluoromethyl)-1,3-thiazol-5-yl]-2-(4-{[(2-fluoropyrimidin-4-yl)oxy]methyl}piperidin-1-yl)ethyl}-6-fluorobenzamide] |
| 13.2 | 25.6 | N#Cc1cccnc1OCC1CCN(C(CNC(=O)c2c(F)cccc2Cl)c2scnc2C(F)F)CC1 (stereo not shown) [Example 108, 2-Chloro-N-[2-(4-{[(3-cyanopyridin-2-yl)oxy]methyl}piperidin-1-yl)-2-[4-(difluoromethyl)-1,3-thiazol-5-yl]ethyl]-6-fluorobenzamide] |
| 19.2 | 24.9 | N#Cc1cccc(OCC2CCN(C(CNC(=O)c3c(F)cccc3Cl)c3scnc3C(F)F)CC2)n1 (stereo not shown) [Example 109, 2-Chloro-N-[2-(4-{[(6-cyanopyridin-2-yl)oxy]methyl}piperidin-1-yl)-2-[4-(difluoromethyl)-1,3-thiazol-5-yl]ethyl]-6-fluorobenzamide] |
| 16.1 | 22.5 | N#Cc1ccncc1OCC1CCN(C(CNC(=O)c2c(F)cccc2Cl)c2scnc2C(F)F)CC1 (stereo not shown) [Example 111, 2-Chloro-N-[2-(4-{[(4-cyanopyridin-3-yl)oxy]methyl}piperidin-1-yl)-2-[4-(difluoromethyl)-1,3-thiazol-5-yl]ethyl]-6-fluorobenzamide] |
| 17.5 | 38.5 | Cc1c(F)ncnc1OCC1CCN(C(CNC(=O)c2c(F)cccc2Cl)c2scnc2C(F)F)CC1 (stereo not shown) [Example 113, 2-Chloro-N-{2-[4-(difluoromethyl)-1,3-thiazol-5-yl]-2-(4-{[(6-fluoro-5-methylpyrimidin-4-yl)oxy]methyl}piperidin-1-yl)ethyl}-6-fluorobenzamide] |
| 37.2 | 50.7 | O=C(NCC(c1scnc1C(F)F)N1CCC(COc2nccc(C(F)(F)F)n2)CC1)c1c(F)cccc1Cl (stereo not shown) [Example 114, 2-Chloro-N-{2-[4-(difluoromethyl)-1,3-thiazol-5-yl]-2-[4-({[4-(trifluoromethyl)pyrimidin-2-yl]oxy}methyl)piperidin-1-yl]ethyl}-6-fluorobenzamide] |
| 44.3 | 74.5 | O=C(NCC(c1scnc1C(F)F)N1CCC(COc2cc(C(F)(F)F)ncn2)CC1)c1c(F)cccc1Cl (stereo not shown) [Example 115, 2-Chloro-N-{2-[4-(difluoromethyl)-1,3-thiazol-5-yl]-2-[4-({[6-(trifluoromethyl)pyrimidin-4-yl]oxy}methyl)piperidin-1-yl]ethyl}-6-fluorobenzamide] |
